Nine compounds from patent publication USRE40793E1, “Bicyclic benzamides of 3-or 4-substituted 4-(aminomethyl)-piperidine derivatives” (Janssen Pharmaceutica, N.V., priority 1997, dated 2009) can be followed below.

Structures are written as SMILES.

For the assay, the system named is conscious dogs. The assay can be described thus: Gastric emptying of an acaloric liquid test meal delayed by administration of lidamidine, in conscious dogs. The format is in vivo, beagle dogs. Particulars: compounds, conscious dog, Δt = t 70% compound minus t 70% solvent, relative to t 70% solvent. The text has this:
C. Pharmacological Examples C.1. Gastric Emptying of an Acaloric Liquid Test Meal Delayed by Administration of Lidamidine, in Conscious Dogs
Female beagle dogs, weighing 7-14 kg, were trained to stand quietly in Pavlov frames. They were implanted with a gastric cannula under general anesthesia and aseptic precautions. After a medium laparatomy, an incision was made through the gastric wall in the longitudinal direction between the greater and the lesser curve, 2 cm above the nerves of Latarjet. The cannula was secured to the gastric wall by means of a double purse string suture and brought out via a stab wound at the left quadrant of the hypochondrium. Dogs were allowed a recovery period of at least two weeks. Experiments were started after a fasting period of 24 hours, during which water was available ad libitum. At the beginning of the experiment, the cannula was opened in order to remove any gastric juice or food remnants.
The stomach was cleansed with 40 to 50 ml lukewarm water. The test compound was administered I.V. (in a volume ≦3 ml via the vena cephalica), S.C. (in a volume ≦3 ml) or P.O. (in a volume of 1 ml/kg body weight, applied intragastrically via the cannula with a device that filled the lumen of the cannula: after injection of the test compound; 5 ml NaCl 0.9% was injected in order to correct for the dead space in the injection system). Immediately after administration of the test compound or its solvent, lidamidine (0.63 mg/kg was administered subcutaneously. 30 min later, the cannula was opened to determine the amount of fluid present in the stomach, promptly followed by reintroduction of the fluid. Then the test meal was administered via the cannula. This test meal consisted of 250 ml distilled water containing glucose (5 g/l) as a marker. The cannula remained closed for 30 min, whereafter the gastric contents were drained from the stomach to measure total volume (t=30 min). For later analysis 1 ml of the gastric contents was taken, promptly followed by reintroduction of the rest volume into the stomach. This sequence was repeated 4 times with 30 min intervals (t=60, 90, 120, 150 min).
In the 1 ml samples of the gastric contents, the glucose concentrations were measured on a Hitachi 717 automatic analyzer by the hexokinase method (Schmidt, 1961).
Curves were fitted to the measurement points (glucose versus time) using weighed non-linear regression analysis. Gastric emptying was quantified as the time needed to empty 70% of the meal (t 70%). The control emptying time was calculated as the mean t 70% of the last 5 solvent experiments of the same dog. Acceleration of delayed gastric emptying (Δt) was calculated as the time difference between t 70% compound and t 70% solvent. To correct for variations in emptying rate between dogs, Δt was expressed as % of t 70% solvent (Schuurkes et al. 1992)).

Turning to `COCCCN1CC[C@@H](CNC(=O)c2cc(Cl)c(N)c3c2OC(C)(C)C3)[C@H](O)C1` (relative stereo) [Compound 40, trans-(+)-4-amino-5-chloro-2,3-dihydro-N-[[3-hydroxy-1-(3-methoxypropyl)-4-piperidinyl]methyl]-2,2-dimethyl-7-benzofurancarboxamide], the “ΔT/T^b (acceleration of gastric emptying of a liquid meal delayed by lidamidine)” value (dose 0.0025 mg/kg) is listed as −0.17. Moreover, the “ΔT/T^a (acceleration of gastric emptying of a liquid meal delayed by lidamidine)” value (dose 0.01 mg/kg) is reported as −0.22.

In the case of `N#CCN1CC[C@@H](CNC(=O)c2cc(Cl)c(N)c3c2OCCC3)[C@H](O)C1` (relative stereo) [Compound 76], for the setting “dose 0.01 mg/kg”, the “ΔT/T^a (acceleration of gastric emptying of a liquid meal delayed by lidamidine)” value is on record as −0.18.

As to `CS(=O)(=O)NCCN1CC[C@@H](CNC(=O)c2cc(Cl)c(N)c3c2OCC3)[C@H](O)C1` (racemic) [Compound 20], where the note is “dose 0.0025 mg/kg”, the “ΔT/T^b (acceleration of gastric emptying of a liquid meal delayed by lidamidine)” value is recorded as −0.20. In addition, the “ΔT/T^a (acceleration of gastric emptying of a liquid meal delayed by lidamidine)” value (dose 0.01 mg/kg) is −0.28.

For the compound `Nc1c(Cl)cc(C(=O)NC[C@@H]2CCN(CCOCCO)C[C@H]2O)c2c1CCCO2.O=C(O)C(=O)O` (relative stereo) [Compound 75], where the note is “dose 0.0025 mg/kg”, the “ΔT/T^b (acceleration of gastric emptying of a liquid meal delayed by lidamidine)” value was −0.39. Besides, the “ΔT/T^a (acceleration of gastric emptying of a liquid meal delayed by lidamidine)” value (dose 0.01 mg/kg) is on record as −0.01.

Take `COCCCN1CC[C@@H](CNC(=O)c2cc(Cl)c(N)c3c2OCCO3)[C@H](O)C1` (relative stereo) [Compound 57]: the “ΔT/T^b (acceleration of gastric emptying of a liquid meal delayed by lidamidine)” value (dose 0.0025 mg/kg) was −0.03. Further, the “ΔT/T^a (acceleration of gastric emptying of a liquid meal delayed by lidamidine)” value (dose 0.01 mg/kg) is listed as −0.10.

Turning to `CC(=O)CCCN1CC[C@@H](CNC(=O)c2cc(Cl)c(N)c3c2OCCO3)[C@H](O)C1.O` (relative stereo) [Compound 59], where the note is “dose 0.0025 mg/kg”, the “ΔT/T^b (acceleration of gastric emptying of a liquid meal delayed by lidamidine)” value is given as −0.15. In addition, under “dose 0.01 mg/kg”, the “ΔT/T^a (acceleration of gastric emptying of a liquid meal delayed by lidamidine)” value is given as −0.13.

Turning to `Nc1c(Cl)cc(C(=O)NC[C@@H]2CCN(CCCO)C[C@H]2O)c2c1CCCO2.O.O` (relative stereo) [Compound 74], for the setting “dose 0.01 mg/kg”, the “ΔT/T^a (acceleration of gastric emptying of a liquid meal delayed by lidamidine)” value is −0.51.

Turning to `CCCCN1CC[C@@H](CNC(=O)c2cc(Cl)c(N)c3c2OCC3)[C@H](OC)C1` (racemic) [Compound 29], the “ΔT/T^b (acceleration of gastric emptying of a liquid meal delayed by lidamidine)” value (dose 0.0025 mg/kg) is reported as −0.32. Where the note is “dose 0.01 mg/kg”, the “ΔT/T^a (acceleration of gastric emptying of a liquid meal delayed by lidamidine)” value is given as −0.51.

Turning to `COCCCN1CC[C@@H](CNC(=O)c2cc(Cl)c(N)c3c2OCC3)[C@H](O)C1` (relative stereo) [Compound 3, trans-4-amino-5-chloro-2,3-dihydro-N-[[3-hydroxy-1-(3-methoxypropyl)-4-piperidinyl]methyl]-7-benzofurancarboxamide], under “Canis lupus familiaris, dose 0.0025 mg/kg, read-out: ΔT/T^b (acceleration of gastric emptying of a liquid meal delayed by lidamidine)”, the change in vivo at 0.0025 mg/kg is -51%. Under “Canis lupus familiaris, dose 0.01 mg/kg, read-out: ΔT/T^a (acceleration of gastric emptying of a liquid meal delayed by lidamidine)”, the change in vivo at 0.01 mg/kg was -73%.
